Measurements taken from ChEMBL document CHEMBL5143710, “Design and synthesis of unprecedented 9- and 10-membered cyclonucleosides with PRMT5 inhibitory activity” (Bioorg Med Chem, 2022).

Experiment: Inhibition of full-length (FL)-PRMT5:MEP50 enzyme complex (unknown origin) expressed in Sf21 cells assessed as reduction in methylation activity using the N-terminus of H4 histone derived substrate peptide H4R3(Me1) by PRMT5:MEP50 biochemical assay
Set-up: species or system Homo sapiens

SMILES | IC50 [µM]
Nc1ncnc2c1nc1n2[C@@H]2O[C@@H]([C@@H](O)[C@H]2O)[C@@H](c2ccc(F)c(F)c2)CCN1 | 5.7
Nc1ncnc2c1nc1n2[C@@H]2O[C@@H]([C@@H](O)[C@H]2O)[C@@H](c2ccc(Cl)cc2)OCCO1 | 1
